The values below come from patent US10646469B2, “Substituted indole derivatives as dengue viral replication inhibitors” (Janssen Pharmaceuticals, Inc., priority 2016, dated 2020).

Structures are written as SMILES.

For one series, the system named is DENV-2 16681 strain. Description: DENV-2 antiviral assay (eGFP-labeled virus in Vero cells). The series is classed as cell-based, Dengue virus. The settings on record: DENV-2 16681 eGFP, MOI 0.5, 3 days. How it is done:
The antiviral activity of all the compounds of the invention was tested against the DENV-2 16681 strain which was labeled with enhanced green fluorescent protein (eGPF). The culture medium consists of minimal essential medium supplemented with 2% of heat-inactivated fetal calf serum, 0.04% gentamycin (50 mg/mL) and 2 mM of L-glutamine. Vero cells, obtained from ECACC, were suspended in culture medium and 25 μL was added to 384-well plates (2500 cells/well), which already contain the antiviral compounds. Typically, these plates contain a 5-fold serial dilution of 9 dilution steps of the test compound at 200 times the final concentration in 100% DMSO (200 nL). […] Finally, each plate contains wells which are assigned as virus controls (containing cells and virus in the absence of compound), cell controls (containing cells in the absence of virus and compound) and medium controls (containing medium in the absence of cells, virus and compounds). To the wells assigned as medium control, 25 μL of culture medium was added instead of Vero cells. Once the cells were added to the plates, the plates were incubated for 30 minutes at room temperature to allow the cells to distribute evenly within the wells. Next, the plates were incubated in a fully humidified incubator (37° C., 5% CO2) until the next day. Then, DENV-2 strain 16681, labeled with eGFP, was added at a multiplicity of infection (MOI) of 0.5. Therefore, 15 μL of virus suspension was added to all the wells containing test compound and to the wells assigned as virus control. In parallel, 15 μL of culture medium was added to the medium and cell controls. Next, the plates were incubated for 3 days in a fully humidified incubator (37° C., 5% CO2). At the day of the read out, the eGFP fluorescence was measured using an automated fluorescence microscope at 488 nm (blue laser). Using an in-house LIMS system, inhibition dose response curves for each compound were calculated and the half maximal effective concentration (EC50) was determined. Therefore, the percent inhibition (I) for every test concentration is calculated using the following formula: I=100*([…])/(SVC−SCC); ST, SCC and SVC are the amount of eGFP signal in the test compound, cell control and virus control wells, respectively. The EC50 represents the concentration of a compound at which the virus replication is inhibited with 50%, as measured by a 50% reduction of the eGFP fluorescent intensity compared to the virus control. The EC50 is calculated using linear interpolation (Table 1).

A further series has as its system Vero cells. Description: Toxicity on the same plates (ATPlite cell viability). The note with it: Vero cells, same plates as DENV-2 antiviral assay. For orientation: Cellular ATP, detected with luciferase, serves as a proxy for viable cell number.

In general, EC50 refers to the midpoint of the concentration-response curve. Read a low EC50 as higher potency in that assay. Broadly, the CC50 is the concentration that lowers cell viability or growth by half. A low value points to harm at low concentration. In turn, `COc1cc(NC(C(=O)c2c[nH]c3ccc(C(F)(F)F)cc23)c2ccc(F)cc2OC)cc(OCCO)c1` (single isomer, unassigned) [Compound 1A, 2-(4-fluoro-2-methoxyphenyl)-2-((3-(2-hydroxyethoxy)-5-methoxyphenyl)amino)-1-(5-(trifluoromethyl)-1H-indol-3-yl)ethanone] showed an EC50 in the series with DENV-2 16681 strain of 64 nM. Also, in the series on Vero cells, the CC50 amounted to 6800 nM.

As for `COc1cc(NC(C(=O)c2c[nH]c3cc(OC)c(C(F)(F)F)cc23)c2ccc(F)cc2OC)cc(OCCO)c1` (single isomer, unassigned) [Compound 2B, 2-(4-fluoro-2-methoxyphenyl)-2-((3-(2-hydroxyethoxy)-5-methoxyphenyl)amino)-1-(6-methoxy-5-(trifluoromethyl)-1H-indol-3-yl)ethanone], the EC50 in the series with DENV-2 16681 strain amounted to 24 nM. In addition, in the series on Vero cells, it took 6800 nM to reach half-maximal cytotoxicity (CC50).

With `COc1cc(NC(C(=O)c2c[nH]c3cc(F)c(C(F)(F)F)cc23)c2ccc(F)cc2OC)cc(OCCO)c1` (single isomer, unassigned) [Compound 3B, 2-(4-fluoro-2-methoxyphenyl)-1-(6-fluoro-5-(trifluoromethyl)-1H-indol-3-yl)-2-((3-(2-hydroxyethoxy)-5-methoxyphenyl)amino)ethanone], the EC50 in the series on DENV-2 16681 strain came to 15 nM. This compound also came in with a CC50 in the series on Vero cells of 7800 nM.

In the series on DENV-2 16681 strain, `COc1cc(NC(C(=O)c2c[nH]c3c(C)cc(C(F)(F)F)cc23)c2ccc(F)cc2OC)cc(OCCO)c1` (single isomer, unassigned) [Compound 4A, 2-(4-fluoro-2-methoxyphenyl)-2-((3-(2-hydroxyethoxy)-5-methoxyphenyl)amino)-1-(7-methyl-5-(trifluoromethyl)-1H-indol-3-yl)ethanone] yielded an EC50 of 63 nM. In the series with Vero cells, this compound returned a CC50 of 11000 nM.

Compound `COc1cc(NC(C(=O)c2c[nH]c3cc(OC)c(OC(F)(F)F)cc23)c2ccc(F)cc2OC)cc(OCCO)c1` (single isomer, unassigned) [Compound 6B, 2-(4-fluoro-2-methoxyphenyl)-2-((3-(2-hydroxyethoxy)-5-methoxyphenyl)amino)-1-(6-methoxy-5-(trifluoromethoxy)-1H-indol-3-yl)ethanone] returned an EC50 in the series with DENV-2 16681 strain of 98 nM. In addition, in the series on Vero cells, the CC50 came out at 10000 nM.

Compound `COc1cc(NC(C(=O)c2c[nH]c3cc(F)c(OC(F)(F)F)cc23)c2ccc(F)cc2OC)cc(OCCO)c1` (single isomer, unassigned) [Compound 7A, 2-(4-fluoro-2-methoxyphenyl)-1-(6-fluoro-5-(trifluoromethoxy)-1H-indol-3-yl)-2-((3-(2-hydroxyethoxy)-5-methoxyphenyl)amino)ethanone] displayed an EC50 in the series with DENV-2 16681 strain of 25 nM. In the series with Vero cells, this compound gave a CC50 of 6700 nM.

Regarding `COc1cc(NC(C(=O)c2c[nH]c3c(C)cc(OC(F)(F)F)cc23)c2ccc(F)cc2OC)cc(OCCO)c1` (single isomer, unassigned) [Compound 8B, 2-(4-fluoro-2-methoxyphenyl)-2-((3-(2-hydroxyethoxy)-5-methoxyphenyl)amino)-1-(7-methyl-5-(trifluoromethoxy)-1H-indol-3-yl)ethanone], the EC50 in the series with DENV-2 16681 strain was found to be 31 nM. The compound also had a CC50 in the series with Vero cells of 6000 nM.

`COc1cc(NC(C(=O)c2c[nH]c3cc(F)c(C(F)(F)F)cc23)c2ccc(Cl)cc2OC)cc(OCCO)c1` (single isomer, unassigned) [Compound 11B, 2-(4-chloro-2-methoxyphenyl)-1-(6-fluoro-5-(trifluoromethyl)-1H-indol-3-yl)-2-((3-(2-hydroxyethoxy)-5-methoxyphenyl)amino)ethanone] came in with an EC50 in the series on DENV-2 16681 strain of 15 nM. The same compound had a CC50 in the series with Vero cells of 2700 nM.

For `COc1cc(NC(C(=O)c2c[nH]c3c(C)cc(C(F)(F)F)cc23)c2ccc(Cl)cc2OC)cc(OCCO)c1` (single isomer, unassigned) [Compound 12B, 2-(4-chloro-2-methoxyphenyl)-2-((3-(2-hydroxyethoxy)-5-methoxyphenyl)amino)-1-(7-methyl-5-(trifluoromethyl)-1H-indol-3-yl)ethanone], in the series with DENV-2 16681 strain, a half-maximal response (EC50) required 38 nM. The compound also displayed a CC50 in the series on Vero cells of 11000 nM.
